Here are results for two compounds from PMC5823406, “Vehicle development, pharmacokinetics and toxicity of the anti-invasive agent 4-fluoro-3’,4’,5’-trimethoxychalcone in rodents” (PLoS ONE, 2018).

In series [1] the test system is mouse. On the set-up: method as in PMID 4962802, PMID 6379027. Conditions: PO; cited from earlier work.
A short description of series [2]: Whole blood stability. Format: in vitro ADME, rat. The following applies: fresh whole blood, male Sprague-Dawley rat blood, read-out: Compound remaining (% of 0 min). As to the method:
C16 (1 μM) or vehicle (DMSO) were incubated with fresh rat blood (Sprague Dawley, male) at 37°C at 5 time points in duplicate over a 120-min period. The final DMSO concentration in the incubation was 0.25%. Reactions were terminated following 0, 15, 30, 60 and 120 min by acetonitrile containing internal standard. The sampling plate was centrifuged (3000 rpm, 45 min, 4 °C) and the supernatants from each time point analyzed for parent compound by HPLC-MS/MS. The percentage of parent compound remaining at each time point relative to the 0-min sample was then calculated from HPLC-MS/MS peak area ratios (compound peak area/internal standard peak area).
C. Stability and metabolism
For details on ADME experiments not included underneath , please consult ref. [1].
C.A. Whole blood stability
Column: Kinetex XB-C18 column, 2.6 µm (150 x2.1 mm)
Mobile phase A: H2O + 0.1% v/v Formic Acid
Mobile phase B: MeCN + 0.1% v/v Formic Acid
Autosampler syringe volume: 100 µL
Weak wash: MeOH:H2O 1:9 v/v
Strong wash: MeOH:H2O 95:5 v/v
Table K. Gradient program.
Mass spectrometric conditions
Model: AB Sciex API5500 QTrap
Mode: Multiple ion monitoring (MIM)
Table L. MIM (parent to parent transitions).
The areas and percentages for the parent and metabolites have been calculated using MIM data where parent to parent transitions have been used, and assume that each metabolite has the same point of ionisation and the sensitivity of the metabolite has not been affected by the biotransformation.

For orientation: LD50 means the dose expected to kill half of the subjects tested. In general, amount remaining refers to the share of the starting amount still present when the sample was taken.

Each structure is given as a SMILES string.

As to `C[S+](C)[O-]` [DMSO, dimethyl sulfoxide], the LD50 in series [1] is 21000 to 28000 mg/kg.
Turning to `COc1ccc([C@@H]2Sc3ccccc3N(CCN(C)C)C(=O)[C@@H]2OC(C)=O)cc1` [diltiazem, reference compound], the fraction remaining at 15 min, 1 µM in series [2] (15 min) is 99.9%. In addition, the fraction remaining at 30 min, 1 µM in series [2] (30 min) was determined as 91.1%. Also, in series [2] (60 min), the share remaining at 60 min, 1 µM was 74.3%. For the same compound, in series [2] (120 min), the amount remaining at 120 min, 1 µM amounted to 45.5%.
